pKi: −log10 of the molar value.
Target: T1, D1 dopamine receptor (Macaca fascicularis, UniProt Q5I6B7)
T1 sequence (Q5I6B7 whole entry): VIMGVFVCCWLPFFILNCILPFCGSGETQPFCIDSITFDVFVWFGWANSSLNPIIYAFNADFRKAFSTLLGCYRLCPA

## Oc1cc2c(cc1O)C1c3ccccc3CNC1CC2 (stereo unspecified) [Dihydrexidine, DHX]
  pKi: 7.69
